Values of other authors in patent US20250161451A1, “ULTRASOUND-RESPONSIVE NANOSCALE DELIVERY PLATFORM FOR USE IN THE TREATMENT OF BIOFILM-ASSOCIATED DISEASES” (priority 2023, published 2025).

System: MRSA biofilms
Details: co-delivery with stimulated phase-shift nanodroplet platform, in vitro

In the case of CN[C@H](CC(C)C)C(=O)N[C@H]1C(=O)N[C@@H](CC(N)=O)C(=O)N[C@H]2C(=O)N[C@H]3C(=O)N[C@H](C(=O)N[C@H](C(=O)O)c4cc(O)cc(O)c4-c4cc3ccc4O)[C@H](O)c3ccc(c(Cl)c3)Oc3cc2cc(c3O[C@@H]2O[C@H](CO)[C@@H](O)[C@H](O)[C@H]2O[C@H]2C[C@](C)(N)[C@H](O)[C@H](C)O2)Oc2ccc(cc2Cl)[C@H]1O [vancomycin], the “bactericidal effect on MRSA biofilms” value is given as “strong but incomplete bactericidal effect”.
